# Results as given in patent US9562035B2, “Benzamide derivative useful as FASN inhibitors for the treatment of cancer” (Janssen Pharmaceutica NV, priority 2013, dated 2017).
# Assays:
# [1] = molecular target: T1, hFASN enzyme (full length) (Homo sapiens, UniProt P49327); test: Fatty Acid Synthase (FASN) Inhibition Scintillation Proximity Assay; assay type: biochemical; settings: for IC50: mean where tested more than once, ~ = standard error of pIC50 larger than 0.5; for inhibition at 10 µM: read-out: FASN % Effect @1E−05M
# T1 construct: 10 μL hFASN enzyme (full length, 300 ng, purified in house); made in house
# Procedure: In this assay, inhibition of FASN activity is measured using ^3H-acetyl-CoA and malonyl-CoA as substrates. ^3H-Acetyl CoA is converted to ^3H-palmitate through a series of reactions by the FASN protein, which contains 7 functional domains and carries out 7 enzymatic reactions to ultimately produce ^3H-palmitate. The assay principle is based upon the fact that ^3H-acetyl-CoA is hydrophilic and the end product, ^3H-palmitate is hydrophobic.
# 10 μL assay buffer (100 mM KH2PO4 pH 7.5, 1 mM DTT) (20 μL in blanks) was added to a 384-well white Opti Plate plate (Perkin Elmer). 0.9 μL test compound (at concentrations of 30 μM, 10 μM, 3 μM, 1 μM, 0.30 μM, 0.10 μM, 0.03 μM and 0.01 μM)/DMSO and 10 μL hFASN enzyme (full length, 300 ng, purified in house) or 10 μL assay buffer was added to the wells. Then 10 μL 450 μM NADPH (Sigma N7505), 18.75 μM [^3H]-acetyl-CoA (Perkin Elmer NET-290L), 150 μM malonyl-CoA (Sigma M4263) were added, mixed and incubated at room temperature for 60 minutes. The reaction was stopped by adding 20 μL Streptavidin coupled imaging beads (25 mg/ml). After incubation for 30 minutes at room temperature in the dark, the 384 well plate was centrifuged at 1500 rpm for 3 minutes and was measured after at least 24 hrs by the LEADseeker™, measuring emission using a 610±20 nm pass filter. (Bays, N. W., et al., “A simplified scintillation proximity assay for fatty acid synthase activity: development and comparison with other FAS activity assays”, J. Biomol. Screen, 2009, pp 636-642, Vol. 14(6).)
# (§1) Raw data generated by the instrument were normalized to % Controlmin values, which were calculated as: % Controlmin=100*(x−mLC)/(mHC−mLC)
# (§2) where mLC and mHC were the means of the low control wells and high control wells on the plate, after manual exclusion of outliers. A plot of Controlmin versus test compound concentration was fitted to a 4-parameter logistic curve using a non-linear least squares regression method. From the plot, an IC50 (concentration at which 50% inhibition is achieved) was calculated. pIC50 values were calculated as −log(IC50), when IC50 is expressed in molar units.
# A2780 ovarian cells [2] = test: A2780 Ovarian Cell Proliferation Assay in Lipid Reduced Medium, without Palmitate; assay type: cell-based; settings: Homo sapiens, A2780; lipid reduced medium, without palmitate, 96 h, MTT; read-out: Proliferation A2780 w/o Palmitate pIC50 (converted)
# Procedure: (§3) The biological assays described below correspond to comparative assays for ovarian cell proliferation. […] Compounds active in the absence of palmitate would not be expected to be active in the control.
# (§4) 2500 cells were seeded in a 96-well clear well plate in 200 μL RPMI1640 with 10% Fetal Calf Serum (Hyclone), and incubated at 37° C., 5% CO2. Blanks were wells without cells. The next day the culture medium was aspirated and replaced by 160 μL culture medium with 10% Lipid-Reduced Serum (LRS, Hyclone). 20 μL test compound (at concentrations of 30 μM, 10 μM, 3 μM, 1 μM, 0.30 μM, 0.10 μM, 0.03 μM and 0.01 μM)/DMSO dilution followed by 20 μL ethanol-BSA solution were added to a final concentrations of 0.2% DMSO, 0.2% fatty-acid-free BSA, 0.25% ethanol. After 96 h incubation an MTT assay was performed. The absorbance was measured at 544 nm on a SPECTRAMAX.
# as §1, §2
# (§5) Representative compounds of the present invention were tested according to the procedure as described in Biological Example 3 above, with results as listed in Table BIO-3, below.
# [3] = molecular target: T2, FASN Keto-reductase Domain (Homo sapiens, UniProt P49327); test: Fatty Acid Synthase Keto-Reductase Domain (FASN KR) Inhibition; assay type: biochemical; settings: mean where tested more than once; read-out: FASN K-R Domain pIC50 (converted)
# T2 construct: 10 μL hFASN enzyme (full length, 300 ng, purified in house) and 360 μM NADPH; made in house
# Procedure: 10 μL assay buffer (100 mM KH2PO4 pH 7.5) was added to a 384-well clear plate (costar 3702). 0.3 μL compound (at concentrations of 30 μM, 10 μM, 3 μM, 1 μM, 0.30 μM, 0.10 μM, 0.03 μM and 0.01 μM)/DMSO, 10 μL hFASN enzyme (full length, 300 ng, purified in house) and 360 μM NADPH (except in blank) were then added. Then, 10 μL 180 mM ethyl acetoacetate (Aldrich 688983) was added, mixed and immediately thereafter, the absorbance at 340 nm (T1) by Multiscan (Labsystems) was measured. After 20 minutes incubation at room temperature the plate was measured again (T2).
# The decrease in absorbance was calculated as (Absorbance before incubation T1)−(Absorbance following incubation T2).
# as §1, §2
# A2780 ovarian cells [4] = test: A2780 Ovarian Cell Proliferation Assay in Lipid Reduced Medium, with Palmitate (control); assay type: cell-based; settings: Homo sapiens, A2780; lipid reduced medium, 25 μM palmitate, 96 h, MTT; read-out: Proliferation A2780 with Palmitate pIC50 (converted)
# Procedure: as §3
# as §4, with “palmitate-BSA” for “ethanol-BSA”, “DMSO, 25 μM palmitate (Sigma, P0500, 10 mM stock solution in ethanol)” for “DMSO,”, “incubation,” for “incubation”
# A best fit curve was fitted by a minimum sum of squares method, plotting Controlmin versus test compound concentration. From the plot, an IC50 (concentration at which 50% inhibition is achieved) was calculated. pIC50 values, presented in the Table below, were calculated as −log(IC50).
# as §5
# T1 sequence (P49327 whole entry): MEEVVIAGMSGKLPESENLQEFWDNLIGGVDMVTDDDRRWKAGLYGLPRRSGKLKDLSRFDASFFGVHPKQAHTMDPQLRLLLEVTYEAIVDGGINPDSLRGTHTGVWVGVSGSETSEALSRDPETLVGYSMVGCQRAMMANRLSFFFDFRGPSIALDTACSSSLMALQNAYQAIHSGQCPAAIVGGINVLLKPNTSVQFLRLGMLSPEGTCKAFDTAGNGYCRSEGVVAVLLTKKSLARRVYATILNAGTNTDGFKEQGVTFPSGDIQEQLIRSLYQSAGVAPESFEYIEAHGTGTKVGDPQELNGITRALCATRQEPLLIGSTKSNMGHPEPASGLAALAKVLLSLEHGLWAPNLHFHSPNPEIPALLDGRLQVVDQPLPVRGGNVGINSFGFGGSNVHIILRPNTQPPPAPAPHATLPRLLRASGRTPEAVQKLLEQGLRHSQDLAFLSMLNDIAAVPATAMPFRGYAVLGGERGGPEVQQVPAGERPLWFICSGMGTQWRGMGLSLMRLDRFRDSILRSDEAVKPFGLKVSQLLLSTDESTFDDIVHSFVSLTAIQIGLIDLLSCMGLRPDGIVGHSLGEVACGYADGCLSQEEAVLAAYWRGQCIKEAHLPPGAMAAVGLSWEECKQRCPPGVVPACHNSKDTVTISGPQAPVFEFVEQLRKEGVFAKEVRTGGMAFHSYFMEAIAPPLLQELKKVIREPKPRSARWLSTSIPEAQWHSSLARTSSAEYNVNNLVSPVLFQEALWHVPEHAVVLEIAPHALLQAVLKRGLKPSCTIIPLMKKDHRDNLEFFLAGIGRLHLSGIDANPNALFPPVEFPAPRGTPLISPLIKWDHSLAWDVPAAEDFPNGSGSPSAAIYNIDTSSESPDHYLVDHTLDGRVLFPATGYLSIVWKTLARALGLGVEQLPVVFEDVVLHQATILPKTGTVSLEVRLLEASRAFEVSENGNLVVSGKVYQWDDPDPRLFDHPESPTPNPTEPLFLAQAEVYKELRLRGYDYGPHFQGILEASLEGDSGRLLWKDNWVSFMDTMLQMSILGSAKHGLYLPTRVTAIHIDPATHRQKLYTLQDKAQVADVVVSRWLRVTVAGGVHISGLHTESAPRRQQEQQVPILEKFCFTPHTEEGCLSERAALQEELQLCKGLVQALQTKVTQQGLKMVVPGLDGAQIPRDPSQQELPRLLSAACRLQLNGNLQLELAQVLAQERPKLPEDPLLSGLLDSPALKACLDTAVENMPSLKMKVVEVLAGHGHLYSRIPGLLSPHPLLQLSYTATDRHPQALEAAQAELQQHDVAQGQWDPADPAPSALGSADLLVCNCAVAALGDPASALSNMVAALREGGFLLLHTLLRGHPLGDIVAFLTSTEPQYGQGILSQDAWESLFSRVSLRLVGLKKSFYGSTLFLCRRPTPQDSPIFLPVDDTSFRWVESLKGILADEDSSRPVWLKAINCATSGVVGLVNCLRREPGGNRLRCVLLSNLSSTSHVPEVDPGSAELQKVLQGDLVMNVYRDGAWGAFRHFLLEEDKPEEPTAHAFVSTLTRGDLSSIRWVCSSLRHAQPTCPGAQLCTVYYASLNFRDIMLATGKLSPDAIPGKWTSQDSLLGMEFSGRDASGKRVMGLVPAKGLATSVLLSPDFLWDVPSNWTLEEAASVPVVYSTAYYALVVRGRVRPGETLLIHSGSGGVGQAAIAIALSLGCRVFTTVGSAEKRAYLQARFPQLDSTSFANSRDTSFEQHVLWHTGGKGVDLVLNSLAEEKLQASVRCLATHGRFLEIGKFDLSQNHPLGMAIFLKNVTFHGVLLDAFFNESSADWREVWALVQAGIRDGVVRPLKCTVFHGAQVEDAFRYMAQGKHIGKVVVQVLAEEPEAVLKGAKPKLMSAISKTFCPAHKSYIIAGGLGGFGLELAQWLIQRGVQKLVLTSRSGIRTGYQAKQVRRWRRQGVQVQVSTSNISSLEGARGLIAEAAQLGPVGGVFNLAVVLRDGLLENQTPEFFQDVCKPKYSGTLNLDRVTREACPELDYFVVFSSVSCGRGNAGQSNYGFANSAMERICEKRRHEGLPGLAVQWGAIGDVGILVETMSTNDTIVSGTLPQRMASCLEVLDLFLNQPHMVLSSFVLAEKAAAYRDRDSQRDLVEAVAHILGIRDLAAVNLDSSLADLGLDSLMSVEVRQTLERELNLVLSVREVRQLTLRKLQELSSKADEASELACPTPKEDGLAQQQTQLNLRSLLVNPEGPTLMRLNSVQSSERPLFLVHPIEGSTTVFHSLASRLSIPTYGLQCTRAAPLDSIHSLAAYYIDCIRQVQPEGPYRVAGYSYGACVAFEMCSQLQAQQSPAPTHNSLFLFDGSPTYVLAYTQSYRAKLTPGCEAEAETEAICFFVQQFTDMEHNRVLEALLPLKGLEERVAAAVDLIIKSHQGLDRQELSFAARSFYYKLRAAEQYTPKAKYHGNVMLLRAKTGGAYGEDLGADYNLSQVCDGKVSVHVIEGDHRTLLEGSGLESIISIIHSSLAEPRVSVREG
# T2 sequence (P49327 whole entry, the tested form may be a part): as the sequence (P49327 whole entry) above
SMILES,IC50 [1] [µM],inhibition at 10 µM [1] [%],IC50 (A2780 ovarian cells [2]) [µM],IC50 [3] [µM],IC50 (A2780 ovarian cells [4]) [µM]
"Cc1ccc(C(=O)N2CC(c3ccc(-c4cccnc4)cc3)C2)cc1NC(=O)c1ccc(NC(C)C)nc1 [Compound 10, 6-(isopropylamino)-N-(2-methyl-5-(3-(4-(pyridin-3-yl)phenyl)azetidine-1-carbonyl)phenyl)nicotinamide]",0.0324,103,~0.0575,0.0447,> 15.1
"Cc1ccc(C(=O)N2CC(c3ccc(-c4cccc5ncccc45)cc3)C2)cc1NC(=O)c1ccc(NC(C)C)nc1 [Compound 12, 6-(isopropylamino)-N-(2-methyl-5-(3-(4-(quinolin-5-yl)phenyl)azetidine-1-carbonyl)phenyl)nicotinamide]",0.0389,111,0.049,0.0229,2.24
"CCC(=O)N[C@@H]1CC[C@H](C(=O)Nc2cc(C(=O)N3CCC(c4ccc(-c5ccnn5C)cc4)CC3)ccc2C)C1 [Compound 13, (1S,3R)—N-(2-methyl-5-(4-(4-(1-methyl-1H-pyrazol-5-yl)phenyl)piperidine-1-carbonyl)phenyl)-3-propionamidocyclopentanecarboxamide]",0.126,99,0.603,0.229,> 10
"Cc1ccc(C(=O)N2CC(c3ccc(-c4ccc5c(cnn5C)c4)cc3)C2)cc1NC(=O)c1ccc(NC(C)C)nc1 [Compound 16, 6-(isopropylamino)-N-(2-methyl-5-(3-(4-(1-methyl-1H-indazol-5-yl)phenyl)azetidine-1-carbonyl)phenyl)nicotinamide]",0.0955,106,1.41,0.0955,> 10
"Cc1ccc(C(=O)N2CCC(c3ccc4c(c3)NC(=O)CC4)CC2)cc1NC(=O)c1ccc(Cl)nc1 [Compound 23, 6-chloro-N-(2-methyl-5-(4-(2-oxo-1,2,3,4-tetrahydroquinolin-7-yl)piperidine-1-carbonyl)phenyl)nicotinamide]",0.589,93,1.12,1.17,~10
"Cc1ccc(C(=O)N2CC(c3ccc(-c4cnn(C)c4)cc3)C2)cc1NC(=O)c1ccc(NC(C)C)nc1 [Compound 24, 6-(isopropylamino)-N-(2-methyl-5-(3-(4-(1-methyl-1H-pyrazol-4-yl)phenyl)azetidine-1-carbonyl)phenyl)nicotinamide]",0.0339,111,0.0851,0.0389,> 10
"Cc1ccc(C(=O)N2CC(c3ccc(-c4ccnn4C)cc3)C2)cc1NC(=O)c1ccc(NC(C)C)nc1 [Compound 25, 6-(isopropylamino)-N-(2-methyl-5-(3-(4-(1-methyl-1H-pyrazol-5-yl)phenyl)azetidine-1-carbonyl)phenyl)nicotinamide]",0.0282,109,0.0347,0.0457,~2.09
"Cc1ccc(C(=O)N2CC(c3ccc(-c4ccsc4)cc3)C2)cc1NC(=O)c1ccc(NC(C)C)nc1 [Compound 26, 6-(isopropylamino)-N-(2-methyl-5-(3-(4-(thiophen-3-yl)phenyl)azetidine-1-carbonyl)phenyl)nicotinamide]",0.0324,105,~2.29,0.0407,> 10

# Further lines, results first:
IC50 [1] [µM],inhibition at 10 µM [1] [%],IC50 (A2780 ovarian cells [2]) [µM],IC50 [3] [µM],IC50 (A2780 ovarian cells [4]) [µM],SMILES
0.174,101,~0.204,0.282,2.45,"Cc1ccc(C(=O)N2CCC(c3ccc4ccncc4c3)CC2)cc1NC(=O)c1ccc(NC(C)C)nc1 [Compound 28, 6-(isopropylamino)-N-(5-(4-(isoquinolin-7-yl)piperidine-1-carbonyl)-2-methylphenyl)nicotinamide]"
0.0339,103,0.174,0.0295,> 15.1,"Cc1ccc(C(=O)N2CC(c3ccc(-c4ccc5cnccc5c4)cc3)C2)cc1NC(=O)c1ccc(NC(C)C)nc1 [Compound 29, 6-(isopropylamino)-N-(5-(3-(4-(isoquinolin-6-yl)phenyl)azetidine-1-carbonyl)-2-methylphenyl)nicotinamide]"
~0.0178,104,0.0251,0.0525,1.66,"Cc1ccc(C(=O)N2CC(c3ccc(-c4ccncc4)cc3)C2)cc1NC(=O)c1ccc(NC(C)C)nc1 [Compound 31, 6-(isopropylamino)-N-(2-methyl-5-(3-(4-(pyridin-4-yl)phenyl)azetidine-1-carbonyl)phenyl)nicotinamide]"
0.437,99,0.676,0.794,~8.91,"Cc1ccc(C(=O)N2CCC(c3ccc4c(c3)NC(=O)CC4)CC2)cc1NC(=O)c1ccc(NC(C)C)nc1 [Compound 35, 6-(isopropylamino)-N-(2-methyl-5-(4-(2-oxo-1,2,3,4-tetrahydroquinolin-7-yl)piperidine-1-carbonyl)phenyl)nicotinamide]"
0.537,94,0.617,0.562,3.39,"Cc1ccc(C(=O)N2CCC(c3ccc4ccncc4c3)CC2)cc1NC(=O)c1ccc(Cl)nc1 [Compound 37, 6-chloro-N-(5-(4-(isoquinolin-7-yl)piperidine-1-carbonyl)-2-methylphenyl)nicotinamide]"
0.0302,111,0.0339,0.0166,5.5,"Cc1ccc(C(=O)N2CC(c3ccc(-c4ccnc5ccccc45)cc3)C2)cc1NC(=O)c1ccc(NC(C)C)nc1 [Compound 39, 6-(isopropylamino)-N-(2-methyl-5-(3-(4-(Quinolin-4-yl)phenyl)azetidine-1-carbonyl)phenyl)nicotinamide]"
